Laboratory results published in BindingDB's records for PubMed 33356248 (Scientus Pharma, 2021).

Target: Cannabinoid receptor 2 (Homo sapiens, UniProt P34972)
Sequence (P34972 whole entry): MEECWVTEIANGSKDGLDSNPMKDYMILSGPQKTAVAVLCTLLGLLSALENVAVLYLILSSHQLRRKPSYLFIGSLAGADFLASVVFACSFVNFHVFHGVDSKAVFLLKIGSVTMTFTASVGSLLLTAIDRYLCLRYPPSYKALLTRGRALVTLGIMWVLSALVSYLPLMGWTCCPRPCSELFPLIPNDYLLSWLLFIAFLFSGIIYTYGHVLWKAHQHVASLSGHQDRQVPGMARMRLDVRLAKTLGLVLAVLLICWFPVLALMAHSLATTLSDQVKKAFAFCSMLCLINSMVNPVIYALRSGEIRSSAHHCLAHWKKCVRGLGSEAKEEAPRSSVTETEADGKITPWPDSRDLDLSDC

Compound: CCCCCc1cc(O)c2c(c1)OC(C)(C)c1ccc(C)cc1-2 [6,6,9-Trimethyl-3-pentyl-6H-benzo[c]chromen-1-ol(Cannabinol)]
- EC50: 60 nM
